Like-named read-outs stand apart in the source and are kept apart here.
Columns and labels:
humans [1] = conditions: seven clinical trials; cited from earlier work
[2] = tested on: Fatty diabetic Zucker rats; test: Fatty diabetic Zucker rats, 4-week diets, fasting glucose; type: in vivo, rat; conditions: diet for 4 weeks
Procedure: Fatty diabetic Zucker rats were separated into three groups to receive three diets for 4 weeks: a) 1% Mg in diet (5 times higher than control diet); b) a combination including 2 g/L of vitamin C in drinking water, 2.5% of KM in diet, 400 mg/kg of α-LA; c) Comp1 that includes 1% of Mg in diet, 2 g/L of vitamin C in drinking water, 2.5% of KM in diet, 400 mg/kg of α-LA.
No change in the level of fasting glucose level vs baseline was observed by the administration of Mg. 17% reduction of glucose vs baseline was observed by the combination of Vitamin C, KM and α-LA. 28% reduction of glucose vs baseline was observed by Comp1 (the combination of Vitamin C, KM and α-LA with Mg salt)

humans [3] = conditions: exposure of humans; cited from earlier work
[4] = tested on: timed-pregnant Sprague-Dawley rats; conditions: rat, in vivo; cited from earlier work
humans [5] = conditions: cited from earlier work
DM patients = conditions: cited from earlier work
T2DM patients [6] = conditions: 200 μg twice daily, 12 weeks, versus placebo; cited from earlier work
T2DM patients [7] = conditions: 200 μg twice daily, three weeks, cited from earlier work

## [Cl-].[Cl-].[Mg+2] [Mg, Magnesium Chloride]
Humans [1]
  effect on glucose levels: failed to show reduced glucose levels
[2]
  reduction of fasting glucose level vs baseline: No change

## OCCNCCO [diethanolamine]
Humans [3]
  individuals developing asthma: 0.6%

## CCN(CC)CCO [diethylethanolamine]
[4]
  reduction of body weight: 9.5%
  reduction of weight gain: 48%

## O=C(O)CCCCC1CCSS1 (stereo not drawn) [α-LA, Alpha-lipoic acid]
Humans [5]; lean T2DM patients
  reduction of fasting glucose level: ~15%
Humans [5]; patients with diabetic neuropathy
  reduction of fasting glucose level: 18%
Humans [5]; two clinical trials
  effect on glucose levels: no effect
DM patients
  decrease of levels of peroxides: 34%

## Chromium picolinate [CrPic]
T2DM patients [6]
  improvement in fasting glucose: 0.44 mM
  improvement in post-prandial serum glucose: 1.97 mM
T2DM patients [7]; T2DM patients
  reduction in glucose versus baseline: −21%
T2DM patients [7]
  change in cholesterol versus baseline: −9.4%
  change in triglycerides versus baseline: −10.5%
T2DM patients [7]; from 8.2% at baseline
  glycated hemoglobin (HbA1C) after treatment: 7.6%

— patent publication US20090169648A1, “COMPOSITIONS TO REDUCE BLOOD GLUCOSE LEVELS AND TREAT DIABETES” (Astrum Therapeutics Pty Ltd, priority 2006, published 2009)
